# Experimental data: paper PMC4091635 (Bioorganic & medicinal chemistry, 2014)
# System: transformed PSC (human pancreatic stellate cells)
# Test: AlamarBlue Cell Viability Assay, PSC proliferation
# Assay type: cell-based
# Conditions: mean of at least three independent experiments, NE: No effect
structure (smiles),measurement,value
"COc1cc(OC)c2c(=O)cc(-c3ccc(O)cc3)oc2c1 [Compound 6, 2-(4-Hydroxy-phenyl)-5,7-dimethoxy-chromen-4-one]",Inhibitory Effect (%) 20 μM,no significant antiproliferative effect
